“And” between values parts separate entries of the source, which are not always exact repeats. Equal entries are not always repeated. Where two headings read alike, the source gives them in different places.
Key:
Assay type in all cases: cell-based
a variety of fungi = assay: Broth microdilution MIC/MID 50 against fungi; conditions: antifungal concentration
Procedure: The clinical and laboratory standards institute Broth Microdilution Methodology was employed, however, the growth medium used was an “RPMI” medium. Table 22c uses a format similar to that used for Table 22a, however, the test solutions were tested against a variety of fungi.

[1] = system: Gram-Positive and Gram Negative bacteria
[2] = system: Trypanosoma b. rhodesiense STIB 900; assay: Alamar Blue assay against Human African Trypanosomiasis parasites
Procedure: Minimum Essential Medium (50 μl) supplemented according to Baltz et al. (1985) with 2-mercaptoethanol and 15% heat-inactivated horse serum was added to each well of a 96-well microtiter plate.
Serial drug dilutions were prepared covering a range from 90 to 0.123 μg/ml.
Then 10^4 bloodstream forms of Trypanosoma b. rhodesiense STIB 900 in 50 μl were added to each well and the plate incubated at 37° C. under a 5% CO2 atmosphere for 72 hours.
10 μl of Alamar Blue (12.5 mg resazurin dissolved in 100 mL distilled water) were then added to each well and incubation continued for a further 2-4 hours.
Then the plates were read with a Spectramax Gemini XS microplate fluorometer (Molecular Devices Cooperation, Sunnyvale, Calif., USA) using an excitation wave length of 536 nm and an emission wave length of 588 nm.
Data were analysed using the software Softmax Pro (Molecular Devices Cooperation, Sunnyvale, Calif., USA). Decrease of fluorescence (=inhibition) was expressed as percentage of the fluorescence of control cultures and plotted against the drug concentrations.
From the sigmoidal inhibition curves the IC50 values were calculated.

Which MID/MIC (a variety of fungi; ATCC 22019 Candida parapsilosis - 24 hrs) does the source give for C[C@@H]1[C@H](O)[C@@H](C)/C=C/C=C/C=C/C=C/C=C/C=C/C=C/[C@H](O[C@@H]2O[C@H](C)[C@@H](O)[C@H](N)[C@@H]2O)C[C@@H]2O[C@](O)(C[C@@H](O)C[C@@H](O)[C@H](O)CC[C@@H](O)C[C@@H](O)CC(=O)O[C@H]1C)C[C@H](O)[C@H]2C(=O)O [Amphotericin B] here?
The MID/MIC was 0.5 µg/mL.

What about the MID/MIC (a variety of fungi; ATCC 22019 Candida parapsilosis - 48 hrs §§ (24 hour read)) of the same compound?
Its MID/MIC is 1 µg/mL.

What about the MID/MIC (a variety of fungi; NCPF 118 Trichophyton rubrum 48 hrs §§ (24 hour read)) of the same compound?
Its MID/MIC is 0.5 µg/mL and 1 µg/mL.

What about the MID/MIC (a variety of fungi; NCPF 175 Trychophyton interdigitale 72 hrs §§ (24 hour read)) of the same compound?
Its MID/MIC is 2 µg/mL.

What about the MID/MIC (a variety of fungi; NCPF 177 *Microsporum canis - 72 hrs }} (required 72 hours incubation)) of the same compound?
The MID/MIC was 0.12 µg/mL.

And the MID/MIC (a variety of fungi; NCPF 224 Trichophyton mentagrophytes - 48 hrs §§ (24 hour read))?
The MID/MIC was 2 µg/mL.

And the MID/MIC (a variety of fungi; NCPF 436 *Microsporum audounii - 72 hrs }} (required 72 hours incubation))?
The MID/MIC was 0.5 µg/mL.

And the MID/MIC (a variety of fungi; NCPF 988 *Microsporum ferrugineum - 72 hrs }} (required 72 hours incubation))?
The MID/MIC was 1 µg/mL.

And the MID/MIC (a variety of fungi; NCPF 2140 Aspergiflus fumigatus - 48 hrs §§ (24 hour read))?
Its MID/MIC is 2 µg/mL.

What about the MID/MIC (a variety of fungi; NCPF 2175 Aspergillus flavus - 48 hrs §§ (24 hour read)) of the same compound?
The MID/MIC was 4 µg/mL.

And the MID/MIC (a variety of fungi; NCPF 2634 Rhizopus oligosporus - 24 hrs)?
Its MID/MIC is 0.5 µg/mL.

What about the MID/MIC (a variety of fungi; NCPF 2715 Penicillium chrysogenum 48 hrs §§ (24 hour read)) of the same compound?
The MID/MIC was 2 µg/mL.

And the MID/MIC (a variety of fungi; NCPF 2722 Fusarium oxysporum - 48 hrs)?
Its MID/MIC is 1 µg/mL.

And the MID/MIC (a variety of fungi; NCPF 2743 Mucor circinelloides - 48 hrs)?
Its MID/MIC is 1 µg/mL.

And the MID/MIC (a variety of fungi; NCPF 3309 Candida glabrata - 24 hrs)?
Its MID/MIC is 0.5 µg/mL.

And the MID/MIC (a variety of fungi; NCPF 3309 Candida glabrata - 48 hrs)?
Its MID/MIC is 1 µg/mL.

What about the MID/MIC (a variety of fungi; NCPF 3516 Candida lusitaniae - 24 hrs) of the same compound?
The MID/MIC was 0.5 µg/mL.

What about the MID/MIC (a variety of fungi; NCPF 3516 Candida lusitaniae - 48 hrs §§ (24 hour read)) of the same compound?
The MID/MIC was 1 µg/mL.

And the MID/MIC (a variety of fungi; NCPF 3853 Trichophyton cutaneum 48 hrs §§ (24 hour read))?
Its MID/MIC is 0.5 µg/mL.

What about the MID/MIC (a variety of fungi; NCPF 5011 Epidermophyton floccosum - 48 hrs) of the same compound?
Its MID/MIC is 0.25 µg/mL.

What about the MID/MIC (a variety of fungi; NCPF 7075 *Sporothrix schenkii - 72 hrs (required 72 hours incubation)) of the same compound?
Its MID/MIC is 1 µg/mL.

What about the MID/MIC (a variety of fungi; NCPF 7147 Alternaria altemata - 48 hrs §§ (24 hour read)) of the same compound?
Its MID/MIC is 1 µg/mL.

What about the MID/MIC (a variety of fungi; NIH 2624 Aspergillus terreus - 48 hrs §§ (24 hour read)) of the same compound?
Its MID/MIC is 2 µg/mL.

Which results are given for CCC[C@@H]1C[C@@H](C(=O)N[C@@H]([C@H]2O[C@H](SC)[C@H](O)[C@@H](O)[C@H]2O)[C@H](C)Cl)N(C)C1 [Clindamycin]?
MID/MIC (amount of antibiotic) [1]: ≤0.06 µg/mL; MID/MIC (amount of antibiotic) ([1]; CD01 Clostridium difficile, Brucella broth with 5% LHB, 1 μg/mL Vit K, 1 μg/mL Haemin): 4 µg/mL; MID/MIC (amount of antibiotic) ([1]; CD02 Clostridium difficile, Brucella broth with 5% LHB, 1 μg/mL Vit K, 1 μg/mL Haemin): 2 µg/mL; MID/MIC (amount of antibiotic) ([1]; CD03 Clostridium difficile, Brucella broth with 5% LHB, 1 μg/mL Vit K, 1 μg/mL Haemin): 2 µg/mL and 1 µg/mL; MID/MIC (amount of antibiotic) ([1]; CD04 Clostridium difficile, Brucella broth with 5% LHB, 1 μg/mL Vit K, 1 μg/mL Haemin): 1 µg/mL; MID/MIC (amount of antibiotic) ([1]; CD05 Clostridium difficile, Brucella broth with 5% LHB, 1 μg/mL Vit K, 1 μg/mL Haemin): 1 µg/mL; MID/MIC (amount of antibiotic) ([1]; CD06 Clostridium difficile, Brucella broth with 5% LHB, 1 μg/mL Vit K, 1 μg/mL Haemin): 1 µg/mL; MID/MIC (amount of antibiotic) ([1]; CD07 Clostridium difficile, Brucella broth with 5% LHB, 1 μg/mL Vit K, 1 μg/mL Haemin): 1 µg/mL; MID/MIC (amount of antibiotic) ([1]; CD08 Clostridium difficile, Brucella broth with 5% LHB, 1 μg/mL Vit K, 1 μg/mL Haemin): 0.5 µg/mL and 1 µg/mL; MID/MIC (amount of antibiotic) ([1]; CD09 Clostridium difficile, Brucella broth with 5% LHB, 1 μg/mL Vit K, 1 μg/mL Haemin): 1 µg/mL and 2 µg/mL; MID/MIC (amount of antibiotic) ([1]; GN10 Pseudomonas aeruginosa ATCC27853, antibiotic-susceptible type strain): 1 µg/mL; MID/MIC (amount of antibiotic) ([1]; GN32 Acinetobacter baumanii, multi-drug resistant clinical isolate): 50.06 µg/mL; MID/MIC (amount of antibiotic) ([1]; P8119035 Citrobacter freundii, resistant clinical isolate): 4 µg/mL

Which IC50 ([2]; 72 h, read-out: T.b. rhod. IC/50 Trial I) does the source give for Nc1nc(N)nc(Nc2ccc([As]3SCC(CO)S3)cc2)n1 (stereo not shown) [Melarsoprol] here?
The IC50 was 0.003 µg/mL.

What about the IC50 ([2]; 72 h, read-out: T.b. rhod. IC/50 Trial III) of the same compound?
The IC50 was 0.002 µg/mL.

What about the IC50 ([2]; 72 h, read-out: T.b. rhod. IC/50 Trial V) of the same compound?
The IC50 was 0.005 µg/mL.

What about the IC50 ([2]; read-out: T.b. rhod. IC/50 Avg less 1 ng/ml) of the same compound?
Its IC50 is 0.00333 µg/mL.

— patent US10441608B2, “Continuous methods for treating liquids and manufacturing certain constituents (e.g., nanoparticles) in liquids, apparatuses and nanoparticles and nanoparticle/liquid solution(s) resulting therefrom” (Clene Nanomedicine, Inc., priority 2009, dated 2019)
